“Also recorded” adds a separate entry of the source.
Legend:
[1] = tested on: isolated rat ventricular myocytes; test: Whole Ca2+ transients and SR Ca2+ load in isolated rat ventricular myocytes (Indo-1, caffeine); assay type: cell-based
Protocol: Isolation of ventricular myocytes from rats was carried out as previously described. Bassani, R A. et al., J. Mol. Cell Cardiol., 26, 1335-1347 (1994). The enzyme used for tissue dissociation was Liberase Blendzyme 3 or 4 (13-20 Wuensch Units/Heart) sometimes supplemented with 5-10 Units of Dispase II (both Roche Diagnostics, Indianapolis, Ind.). When the heart became flaccid, left ventricular tissue was cut into small pieces for further incubation (5 to 10 min at 37° C.) in enzyme solution. The tissue was dispersed, filtered, and suspensions rinsed several times before used for experiments. Isolated rat ventricular myocytes were then plated onto superfusion chambers, with the glass bottoms treated with natural mouse laminin (Invitrogen, Carlsbad, Calif.). The standard Tyrode's solution used in all experiments contained (in mM): NaCl 140, KCl 4, MgCl2 1, glucose 10, HEPES 5, and CaCl2 1, pH 7.4. Myocytes were loaded with 6 μM Indo-1/AM for 25 min and subsequently perfused for at least 30 min to allow for deesterfication of the dye. Some cells were pretreated with 0.5 mM AS (in some Caffeine experiments with 1 mM), washed and then loaded with Indo-1/AM. Concentration of the AS stock solution was verified by absorbance at 250 nm. All experiments were done at room temperature (23-25° C.) using field stimulation. Ca^2+-transients were recorded with Clampex 8.0 and data analyzed with Clampfit.
To further explore potential HNO targets, calcium cycling in adult mouse and rat cardiac myocytes was examined. Cells were first exposed to AS for 5-10 min, then washed and loaded with Indo-1 or Fluo-4 for 20 min. Pretreatment with AS was carried out because the drug reacted with the Ca^2+ indicators (both Fluo-4 and Indo-1) and altered their fluorescent properties. In mice, the calcium transient amplitude assessed by confocal line scan imaging increased by ˜40% over baseline with 0.5 mM AS, (n=27, p<0.001) (FIG. 3A-FIG. 3C), time to peak transient was prolonged (FIG. 3D) while the decay time shortened (FIG. 3E). Basal fluorescence (F0) was unchanged by AS pretreatment (FIG. 3F). Similar results were obtained in rat myocytes (using Indo-1) for Ca^2+ transient amplitude (FIG. 3G and FIG. 3H) and decay time (FIG. 3I). The increase in amplitude was not accompanied by an increase in diastolic Ca^2+ level (ratio 405/485=0.239±0.006 (Con) vs. 0.243±0.008 (AS); n.s.; see also FIG. 3A, FIG. 3F and FIG. 3G). Rapid sustained caffeine (10 mM) application abruptly releases all SR Ca^2+ and subsequent [Ca^2+]i decline is mediated mainly via Na/Ca exchange.

[2] = End-diastolic pressure-volume relationship (EDPVR) in chronically instrumented dogs with pacing-induced cardiac failure; assay type: in vivo; settings: CHF dog preparations
Protocol: Adult male mongrel dogs (22-25 kg) were chronically instrumented for pressure-dimension analysis as described. See, Paolocci et al., “Positive Inotropic and Lusitropic Effects of HNO/NO− in Failing Hearts: Independence from Beta-Adrenergic Signaling,” Proc. Natl. Acad. Sci. USA., 100, 5537-5542 (2003); and Senzaki et al., Circulation, 101, 1040-1048 (2000). Animals were anesthetized with 1% to 2% halothane after induction with sodium thiopental (10-20 mg/kg, i.v.). The surgical/experimental animal protocol was approved by the Johns Hopkins University Animal Care and Use Committee. […] Cardiac failure was induced by rapid ventricular pacing for 3 weeks as described. See, Paolocci et al., supra, and Senzaki et al., supra.
Hemodynamic data were digitized at 250 Hz. […] These relations strongly correlate with results from pressure-volume data in normal and failing hearts, as previously validated. Cardiovascular function was assessed by stroke dimension, fractional shortening (stroke dimension/end-diastolic dimension [EDD]), estimated cardiac output (stroke dimension×HR), peak rate of pressure rise (dP/dtmax), end-systolic elastance (Ees, slope of end-systolic pressure-dimension relation [ESPDR]), the slope of dP/dtmax-EDD relation (DEDD) (see, Little, Circ Res., 56:808-815 (1985)), pre-recruitable stroke work (PRSW), (based on dimension-data), estimated arterial elastance (Ea, end systolic pressure/stroke dimension) and estimated total resistance (RT, […]). Ees, DEDD and PRSW provide load-insensitive contractility measures.
The end-diastolic pressure-volume relationship (EDPVR) was determined applying non-linear regression analysis to the end-diastolic pressure and volume points (Ped and Ved, respectively), according to Kass, Cardiol Clin., 18, 571-86 (2000) (Review).
In order to evaluate the impact of each pharmacological intervention on the EDPVR, changes in end-diastolic pressure from baseline (ΔPed) at volumes providing baseline end-diastolic pressure of […] mmHg EDP (V10, V15, V20, respectively) were determined (FIG. 5).

cAMP = cAMP FRET imaging in neonatal rat cardiomyocytes; assay type: cell-based; settings: 1 mM AS, n=23, p=NS
Protocol: Primary cultures of cardiac ventricular myocytes from 1-3 days old Sprague Dawley rats (Charles River Laboratories, Wilmington, Mass.) were prepared as described. Dostal, D. E. et al., Am. J. Physiol., 263, […]-[…] (1992). Cells were transfected with a FRET-based sensor for cAMP (Zaccolo, M. et al., Science, 295, 1711-1715 (2002)) and imaged 48 hrs after transfection. During the experiments, cells were continuously perfused with HEPES buffered Ringer's modified saline (1 mmol/LCaCl2) at room temperature. Cells were imaged on an inverted Olympus IX50 microscope upon excitation at 430 nm. Mongillo, M. et al., Circ. Res., 98, 226-234 (2006). Image analysis was performed by using ImageJ (Rasband, W. S., ImageJ, National Institutes of Health, Bethesda, Md., USA). At each time point, FRET values were measured as the 480 nm/535 nm emission ratio intensity (R) and were normalized to the 480 nm/535 nm value at time 0s (R0). Agents that increase peak Ca^2+ transients coupled to increased sarcomere shortening often do so via a rise in intracellular cAMP and subsequent activation of protein kinase A ([…]. et al., Curr. Med. Chem., 10, 967-981 (2003). To test whether this applied to AS, real-time imaging of cAMP on transfected neonatal rat cardiomyocytes was performed with a cAMP FRET-probe. Zaccolo, M. et al., Science, 295, 1711-1715 (2002). Upon exposure to 1 mM AS, the FRET signal was unchanged (0.3%±0.1%, n=23, p=NS), whereas subsequent application of norepinephrine (10 μM) or phosphodiesterase inhibitor IBMX (100 μM) both increased it by 12% (p<10^-6) (FIG. 2A). Pre-treatment of adult mouse myocytes with the PKA inhibitor […]

## [Na+].[Na+].[O-][N+]([O-])=NO [AS, Angeli's salt]
[1]; AS pretreated
  fractional SR Ca2+ release: enhanced
[1]; AS pretreated cells, Con 12.4%
  relative contribution of NCX to Ca2+ removal: 8.7%
[1]; AS pretreated cells, Con 87.6%
  relative contribution of the SR to Ca2+ removal: 91.3%
[1]; AS pretreated rat myocytes, Con 0.239±0.006, n.s.
  diastolic Ca2+ level (ratio 405/485): 0.243±0.008
[1]; AS pretreated, caffeine 10 mM
  SR Ca2+ content (total SR load, caffeine): unchanged; also recorded: did not alter
[1]; caffeine 10 mM, printed 2.0±0.4 vs. 2.2±0.3, order Con vs. AS assumed
  τ of caffeine-induced Ca2+ transient decline (Na/Ca exchange function): 2.2 ± 0.3 s
[2]
  effect on end-diastolic pressure-volume relationship (EDPVR): declined significantly
cAMP
  change of cAMP FRET signal: 0.3%±0.1%
